The results in this text go back to patent US10875858B2, “Process for preparing halogenated pyridine derivatives” (Bayer CropScience Aktiengesellschaft, priority 2016, dated 2020).

Each structure is given as a SMILES string.

A short description of this series: log P by HPLC-MS. The format is physicochemical.
`Cn1c(-c2nc(Cl)ccc2F)nc2cc(C(F)(F)F)ncc21` [Example 2, 2-(6-chloro-3-fluoropyridin-2-yl)-3-methyl-6-(trifluoromethyl)-3H-imidazo[4,5-c]pyridine] registered a chromatographic logP of 2.38.

As for `COC(=O)c1ccc(F)c(-c2nc3cc(C(F)(F)F)ncc3n2C)n1` [Example 3, methyl 5-fluoro-6-[3-methyl-6-(trifluoromethyl)-3H-imidazo[4,5-c]pyridin-2-yl]pyridine-2-carboxylate], the chromatographic logP came to 2.03.

`Cn1c(-c2nc(Br)ccc2F)nc2cc(C(F)(F)F)ncc21` [Example 4, 2-(6-bromo-3-fluoropyridin-2-yl)-3-methyl-6-(trifluoromethyl)-3H-imidazo[4,5-c]pyridine] yielded a chromatographic logP of 2.51.

`Cn1cnc2cc(C(F)(F)F)nnc21` [Example 5, 7-methyl-3-(trifluoromethyl)-7H-imidazo[4,5-c]pyridazine] gave a chromatographic logP of 0.95.

As to `Cn1c(-c2nc(Cl)ccc2F)nc2cc(C(F)(F)F)nnc21` [Example 6, 6-(6-chloro-3-fluoropyridin-2-yl)-7-methyl-3-(trifluoromethyl)-7H-imidazo[4,5-c]pyridazine], the chromatographic logP was found to be 2.46.

`COC(=O)c1ccc(F)c(-c2nc3cc(C(F)(F)F)nnc3n2C)n1` [Example 7, methyl 5-fluoro-6-[7-methyl-3-(trifluoromethyl)-7H-imidazo[4,5-c]pyridazin-6-yl]pyridine-2-carboxylate]: the chromatographic logP turned out to be 2.09.

`Cn1c(-c2nc(Br)ccc2F)nc2cc(C(F)(F)F)nnc21` [Example 8, 6-(6-bromo-3-fluoropyridin-2-yl)-7-methyl-3-(trifluoromethyl)-7H-imidazo[4,5-c]pyridazine] displayed a chromatographic logP of 2.58.

As a reminder, the chromatographic logP is a lipophilicity value derived from retention on a column. A higher chromatographic logP goes with higher lipophilicity.
